In ChEMBL document CHEMBL2177061, “Factors influencing the specificity of inhibitor binding to the human and malaria parasite dihydroorotate dehydrogenases” (J Med Chem, 2012):
Residue numbers refer to the chain shown, from its start.

Legend:
[1] = system: T1, Dihydroorotate dehydrogenase (quinone), mitochondrial (Plasmodium falciparum (isolate 3D7)), Q08210 [C276Y]; test: Inhibition of Plasmodium falciparum […] dehydrogenase C276Y mutant expressed in Escherichia coli BL21(DE3) using […] as substrate at 100 uM by DCIP-based colorimetric analysis
T1 sequence (whole entry): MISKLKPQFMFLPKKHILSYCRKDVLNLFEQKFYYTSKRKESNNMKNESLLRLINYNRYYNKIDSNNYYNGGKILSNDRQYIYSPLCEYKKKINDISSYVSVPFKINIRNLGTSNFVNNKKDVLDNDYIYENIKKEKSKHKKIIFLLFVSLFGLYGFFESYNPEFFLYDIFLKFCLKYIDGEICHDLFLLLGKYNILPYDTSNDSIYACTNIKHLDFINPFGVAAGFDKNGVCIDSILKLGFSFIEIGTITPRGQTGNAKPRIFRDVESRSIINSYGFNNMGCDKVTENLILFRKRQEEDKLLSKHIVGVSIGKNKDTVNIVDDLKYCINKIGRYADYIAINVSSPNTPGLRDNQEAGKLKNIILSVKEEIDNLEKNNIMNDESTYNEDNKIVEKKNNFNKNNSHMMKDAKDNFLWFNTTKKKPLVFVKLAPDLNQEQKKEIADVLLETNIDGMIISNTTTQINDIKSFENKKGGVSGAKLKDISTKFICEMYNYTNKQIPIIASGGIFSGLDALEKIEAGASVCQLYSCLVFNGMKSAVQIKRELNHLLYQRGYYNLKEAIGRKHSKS

[2] = system: T2, Dihydroorotate dehydrogenase (quinone), mitochondrial (Plasmodium falciparum (isolate 3D7)), Q08210 [C276F]; test: Inhibition of Plasmodium falciparum […] dehydrogenase C276F mutant expressed in Escherichia coli BL21(DE3) using […] as substrate at 100 uM by DCIP-based colorimetric analysis
T2 sequence (whole entry): T1 sequence (whole entry) with Y276F

[3] = system: T3, Dihydroorotate dehydrogenase (quinone), mitochondrial (Plasmodium falciparum (isolate 3D7)), Q08210 [H185A]; test: Inhibition of Plasmodium falciparum […] dehydrogenase H185A mutant expressed in Escherichia coli BL21(DE3) using […] as substrate at 100 uM by DCIP-based colorimetric analysis
T3 sequence (whole entry): T1 sequence (whole entry) with H185A, Y276C

[4] = species: Homo sapiens; test: Ratio of IC50 for human dihydrofolate dehydrogenase Y147F mutant to IC50 for human wild type dihydrofolate dehydrogenase
[5] = species: Homo sapiens; test: Ratio of IC50 for human dihydrofolate dehydrogenase Y147C mutant to IC50 for human wild type dihydrofolate dehydrogenase
[6] = species: Homo sapiens; test: Ratio of IC50 for human […] dehydrogenase H56A mutant to IC50 for human wild type […] dehydrogenase
[7] = target: Dihydroorotate dehydrogenase (quinone), mitochondrial (Homo sapiens, UniProt Q02127); test: Inhibition of human […] dehydrogenase expressed in Escherichia coli BL21(DE3) using […] as substrate by DCIP-based colorimetric analysis
Dihydroorotate dehydrogenase (quinone), mitochondrial, sequence (Q02127 whole entry): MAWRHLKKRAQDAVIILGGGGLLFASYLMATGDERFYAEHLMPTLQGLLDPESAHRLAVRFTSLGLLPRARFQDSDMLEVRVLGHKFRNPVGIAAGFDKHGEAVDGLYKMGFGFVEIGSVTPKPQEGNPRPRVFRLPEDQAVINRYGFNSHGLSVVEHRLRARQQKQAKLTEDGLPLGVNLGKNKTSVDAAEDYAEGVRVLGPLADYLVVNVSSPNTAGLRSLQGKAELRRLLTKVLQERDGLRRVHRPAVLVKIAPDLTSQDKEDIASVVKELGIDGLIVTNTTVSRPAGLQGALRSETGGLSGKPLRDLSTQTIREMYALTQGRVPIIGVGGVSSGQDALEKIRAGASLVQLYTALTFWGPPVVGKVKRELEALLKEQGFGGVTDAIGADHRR

[8] = target: T4, Dihydroorotate dehydrogenase (Plasmodium falciparum, UniProt Q54A96); test: Inhibition of Plasmodium falciparum […] dehydrogenase expressed in Escherichia coli BL21(DE3) using […] as substrate by DCIP-based colorimetric analysis
T4 sequence (Q54A96 whole entry): T1 sequence (whole entry) with Y276C

In the case of CCc1cc(O)n2nc(SCc3cc(Cl)ccc3Cl)nc2n1, the inhibition [1] is reported as less than 50%, the inhibition [2] is reported as less than 50% and the inhibition [3] is reported as less than 50%. It also gave a Ratio IC50 [4] of 1.9, a Ratio IC50 [5] of 9 and a Ratio IC50 [6] of 17. The IC50 [7] was 13 nM and the IC50 [8] was greater than 100000 nM.
